Laboratory results taken from publication PMC11551755, “Structure-based discovery of first inhibitors targeting the helicase activity of human PIF1” (Nucleic Acids Research, 2024).
“And” between values parts separate entries of the source, which are not always exact repeats. Equal values may be shown once. Read-outs that look alike come from different tables or passages of the source.

Assays:
[1] = molecular target: T1, FLhPIF1 (full length human PIF1) (Homo sapiens, UniProt Q9H611); assay: radiometric strand displacement helicase assay, no pre-incubation; format: biochemical; conditions: for inhibition at 1000 µM: 1 mM single point, gel-based DNA unwinding assay, four repeats (S4 n=3); for IC50: n = 3
T1 construct: Full length human PIF1 (FLhPIF1) was expressed and purified as a His-SUMO fusion; His-SUMO (cleaved yes); made in house; 'following similar protocols' to hPIF1HD (ArcticExpress BL21(DE3) E. coli)
T1 sequence (Q9H611 1-641): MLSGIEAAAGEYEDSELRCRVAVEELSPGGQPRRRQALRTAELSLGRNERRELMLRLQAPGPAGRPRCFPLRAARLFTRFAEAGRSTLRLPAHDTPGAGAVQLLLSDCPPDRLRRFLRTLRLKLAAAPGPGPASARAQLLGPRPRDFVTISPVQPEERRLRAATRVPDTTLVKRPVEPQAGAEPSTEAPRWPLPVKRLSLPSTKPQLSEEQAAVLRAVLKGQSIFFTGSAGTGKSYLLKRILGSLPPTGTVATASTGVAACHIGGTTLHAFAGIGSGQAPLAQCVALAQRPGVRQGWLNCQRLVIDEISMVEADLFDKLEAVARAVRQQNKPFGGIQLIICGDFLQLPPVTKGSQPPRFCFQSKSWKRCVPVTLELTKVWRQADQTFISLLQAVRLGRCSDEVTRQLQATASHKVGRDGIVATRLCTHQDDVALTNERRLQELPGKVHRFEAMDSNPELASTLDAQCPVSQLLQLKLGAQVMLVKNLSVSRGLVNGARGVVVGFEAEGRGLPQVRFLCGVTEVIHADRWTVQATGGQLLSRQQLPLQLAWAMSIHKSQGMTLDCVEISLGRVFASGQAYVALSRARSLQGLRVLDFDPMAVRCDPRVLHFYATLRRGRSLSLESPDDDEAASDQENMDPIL
Procedure: Helicase activity was assayed using a radiometric strand displacement assay employing a partially single- and double-stranded substrate generated by annealing two oligonucleotides: 5′-(T)55-[…] and 5′-[…], as described previously ([19],[28]). […] SMIs (100 mM stocks in DMSO) were assayed at up to 2 mM without pre-incubation with FLhPIF1, unless otherwise stated. […] Dried gels were exposed to phosphorimaging plates (Fujifilm) for imaging and quantification (Fuji FLA3000, image gauge V3.3 software). IC50 values were analysed by non-linear regression (variable slope) using GraphPad Prism.

FLhPIF1 = molecular target: T2, FLhPIF1 (Homo sapiens, UniProt Q9H611); assay: helicase assay after pre-incubation of SMI with FLhPIF1; format: biochemical
T2 construct: Full length human PIF1 (FLhPIF1) was expressed and purified as a His-SUMO fusion; His-SUMO (cleaved yes); made in house; 'following similar protocols' to hPIF1HD (ArcticExpress BL21(DE3) E. coli)
T2 sequence (Q9H611 1-641): T1 sequence (Q9H611 1-641)
Procedure: Helicase activity was assayed using a radiometric strand displacement assay employing a partially single- and double-stranded substrate generated by annealing two oligonucleotides: 5′-(T)55-[…] and 5′-[…], as described previously ([19],[28]). The reaction buffer was 20 mM HEPES–NaOH pH 7.5, 20 mM NaCl, 5.5 mM MgCl2, 5 mM ATP, 1 mM DTT and 0.1 mg/ml BSA. SMIs (100 mM stocks in DMSO) were assayed at up to 2 mM without pre-incubation with FLhPIF1, unless otherwise stated. Reactions (0.1 nM substrate) were incubated at 37°C for 20 min, followed by addition of 0.2 volumes of 120 mM EDTA, 0.6% (w/v) SDS, 60% (v/v) glycerol and 0.1% (w/v) bromophenol blue before resolution of products by polyacrylamide gel electrophoresis (8%, 19:1 acrylamide:bis-acrylamide), 1× TBE (90 mM Tris–borate/2 mM EDTA, pH 8.3 with 0.05% (w/v) SDS buffer). Dried gels were exposed to phosphorimaging plates (Fujifilm) for imaging and quantification (Fuji FLA3000, image gauge V3.3 software). IC50 values were analysed by non-linear regression (variable slope) using GraphPad Prism.
First, we screened inhibitory activity of the SMIs listed in Table 1, following incubation of 100 nM FLhPIF1 with 100 μM SMI for 1 h at 22°C in the absence of substrates (ATP and DNA), before a 1:10 dilution into helicase reactions. […] Next, compounds 2, 5, 6 and 11, along with 4 and 1D were selected for analysis in a pre-incubation time-course (100 nM FLhPIF1, 100 μM SMI), up to 3 h before assaying helicase activity.
In parallel, IC50 values for inhibition of human UPF1 (hUPF1) helicase activity by the SMIs were also determined under the same conditions. UPF1-like SF1B helicases are the most closely related family of helicases to PIF1, with significant structural and mechanistic similarity ([52]).
Figure 6. SMI IC50 for dsDNA unwinding determined following pre-incubation. SMIs (0.0078–2 mM SMI) were incubated for 2 h at 22°C (100 nM FLhPIF1 or hUPF1) before dilution (1:10) in the standard helicase assay (0.1 nM DNA substrate). For 1D and 6, structures, electrophoresis of FLhPIF1 reaction product and graphs for IC50 value determination are shown. The graphed data include the activity of SMIs towards hUPF1 and IC50 values obtained are given. See Supplementary Figure S14 for the complete data set. TEXT PRINTED IN THE PICTURE: 1D: IC50 (μM): PIF1: 978 ± 221; IC50 (μM): UPF1: N.D. | 6: IC50 (μM): PIF1: 79.4 ± 16; IC50 (μM): UPF1: 1750 ± 426

[2] = 0.0078–2 mM compound, 10 nM FLhPIF1, 0.1 nM DNA substrate, no pre-incubation, read-out: IC50 for inhibition of FLhPIF1 helicase activity

SMILES: Nc1nc(-c2ccc([N+](=O)[O-])cc2)cs1 [Compound 3]
- inhibition at 1000 µM [1]: 85.6 ± 5.1%
- IC50 [1, 2]: 184 ± 13 µM

SMILES: COc1cc(-c2csc(N)n2)ccc1NC(C)=O [S50]
- inhibition at 1000 µM [1]: 22.1 ± 5%

SMILES: Nc1nc(-c2ccc(OC(F)(F)F)cc2)cs1 [S11]
- inhibition at 1000 µM [1]: 58.3 ± 9.1%

SMILES: CC(=O)Nc1ccc(-c2csc(N)n2)cc1N1CCOCC1 [S48]
- inhibition at 1000 µM [1]: 11.5 ± 3.7%

SMILES: COC(=O)c1cccc(-c2csc(N)n2)c1 [S12]
- inhibition at 1000 µM [1]: -11 ± 1%

SMILES: CCCNC(=O)c1cccc(-c2csc(N)n2)c1 [S13]
- inhibition at 1000 µM [1]: 0.2 ± 1.4%

SMILES: CC(=O)Nc1ccc(-c2csc(N)n2)cc1N1CCNCC1 [Compound 9]
- inhibition at 1000 µM [1]: 69.1 ± 5.5%
- IC50 [1, 2]: 307 ± 16 µM

SMILES: CC(=O)Nc1ccc(-c2csc(N)n2)cc1-c1cccnc1 [S55]
- inhibition of FLhPIF1 helicase activity in 1 mM single-point screen [1]: did not display any inhibitory activity at all
- inhibition at 1000 µM [1]: -17.3 ± 5%

SMILES: CC(=O)Nc1ccc(-c2csc(N)n2)cc1 [Compound 1E]
- helicase inhibitory activity compared to commercial batches 1A–1C ([1]; 0.0078-2 mM, no pre-incubation): significantly lower inhibitory activities

SMILES: Nc1nc(-c2ccc(-c3ccccc3)cc2)cs1 [S18]
- inhibition of FLhPIF1 helicase activity in 1 mM single-point screen [1]: incapable of inhibiting FLhPIF1 helicase activity effectively
- inhibition at 1000 µM [1]: -6.7 ± 7.3%

SMILES: CC(=O)Nc1ccc(-c2csc(N)n2)cc1C(C)O (centres unmarked) [S25]
- inhibition at 1000 µM [1]: 42.5 ± 13.5%

SMILES: CC(=O)Nc1ccc(-c2csc(C)n2)cc1 [S2]
- inhibition of FLhPIF1 helicase activity in 1 mM single-point screen [1]: only minimal activity
- inhibition at 1000 µM [1]: -3 ± 2.8%

SMILES: CCN(CC)C(=O)c1ccc(-c2csc(N)n2)cc1 [S14]
- inhibition at 1000 µM [1]: -4.6 ± 2.8%

SMILES: CCOc1ccc(-c2csc(N)n2)cc1 [S16]
- inhibition at 1000 µM [1]: 25.9 ± 3.2%

SMILES: CC(=O)Nc1ccc(-c2csc(N)n2)cc1-c1cnn(C)c1 [S56]
- inhibition of FLhPIF1 helicase activity in 1 mM single-point screen [1]: did not display any inhibitory activity at all
- inhibition at 1000 µM [1]: -16.9 ± 4.5%

SMILES: CC(=O)Nc1ccc(-c2csc(N)n2)cc1OC1CCCC1 [S51]
- inhibition at 1000 µM [1]: 50 ± 4.2%

SMILES: CC(=O)Nc1ccc(-c2csc(N)n2)cc1N1CCN(C)CC1 [S49]
- inhibition at 1000 µM [1]: 24.3 ± 5.9%

SMILES: CNc1nc(-c2ccc(NC(C)=O)cc2)cs1 [S3]
- inhibition at 1000 µM [1]: -6.4 ± 2%

SMILES: Cc1cccc(-c2csc(N)n2)c1 [S7]
- inhibition at 1000 µM [1]: -8.1 ± 1.9%

SMILES: Nc1nc(-c2ccc(Oc3ccccc3)cc2)cs1 [S17]
- inhibition at 1000 µM [1]: 61.7 ± 8.2%

SMILES: CC(=O)Nc1ccc(-c2csc(N)n2)cc1 [Compound 1F]
- inhibition at 1000 µM [1]: 14.2 ± 7%
- IC50 [1, 2]: ~1160 µM and 1160 µM
- IC50 ([1]; no pre-incubation, value with large error, read-out: IC50 against FLhPIF1 helicase): ~1200 µM

SMILES: COc1nc(-c2ccc(NC(C)=O)cc2)cs1 [S4]
- inhibition of FLhPIF1 helicase activity in 1 mM single-point screen [1]: only minimal activity
- inhibition at 1000 µM [1]: 9.6 ± 2.8%

SMILES: COC(=O)c1ccc(-c2csc(N)n2)cc1 [Compound 4]
- IC50 (FLhPIF1; 2 h pre-incubation at 22°C with 100 nM FLhPIF1, then 1:10 dilution into helicase assay, read-out: IC50 for dsDNA unwinding by FLhPIF1 following pre-incubation): 300 ± 66 µM
- increase in inhibition of FLhPIF1 DNA unwinding after pre-incubation (FLhPIF1; 3 h pre-incubation, 100 nM FLhPIF1, 100 μM SMI): 5–10%
- inhibition at 1000 µM [1]: 72.4 ± 4.5%
- IC50 [1, 2]: 78 ± 4 µM

SMILES: CS(=O)(=O)c1ccc(-c2csc(N)n2)cc1 [S19]
- inhibition at 1000 µM [1]: 46.6 ± 15.5%

SMILES: CC(=O)Nc1ccc(-c2csc(N)n2)cc1C(C)=O [S24]
- inhibition at 1000 µM [1]: 10.4 ± 3.3%

SMILES: COC(=O)Cc1ccc(-c2csc(N)n2)cc1 [S20]
- inhibition at 1000 µM [1]: 35.9 ± 9.9%

SMILES: CNCCNc1cc(-c2csc(N)n2)ccc1[N+](=O)[O-] [Compound 8]
- inhibition at 1000 µM [1]: 77.8 ± 7.9%
- IC50 [1, 2]: 176 ± 6 µM

SMILES: Nc1nc(-c2cccc(OC(F)(F)F)c2)cs1 [S10]
- inhibition at 1000 µM [1]: 59.5 ± 1.7%

SMILES: CC(=O)Nc1ccc(-c2csc(NC(C)=O)n2)cc1 [Compound 7]
- fold increase in inhibition at 1 mM relative to compound 1 ([1]; 1 mM single point helicase screen): 4 fold
- inhibition at 1000 µM [1]: 57 ± 14.7%
- IC50 [1, 2]: 569 ± 139 µM

SMILES: Nc1nc(-c2ccc(S(N)(=O)=O)cc2)cs1 [S21]
- inhibition at 1000 µM [1]: -17.3 ± 4.2%

SMILES: N#Cc1cccc(-c2csc(N)n2)c1 [S9]
- inhibition at 1000 µM [1]: -12.6 ± 4.6%

SMILES: Cc1ccc(-c2csc(N)n2)cc1 [S8]
- inhibition of FLhPIF1 helicase activity in 1 mM single-point screen [1]: incapable of inhibiting FLhPIF1 helicase activity effectively
- inhibition at 1000 µM [1]: 43.9 ± 5.7%

SMILES: CCN(CC)c1cc(-c2csc(N)n2)ccc1NC(C)=O [S47]
- inhibition at 1000 µM [1]: 24.6 ± 8.9%

SMILES: CNC(=O)c1ccc(-c2csc(N)n2)cc1 [S15]
- inhibition at 1000 µM [1]: 37.9 ± 4.3%
